Measurements: article PMC11385396 (Journal of Ginseng Research, 2024)

How the values were obtained:
Format in all cases: in vivo, Sprague-Dawley rats
Coagulation function = conditions: rats, 12h after last dose of one week gavage; compared with the control group
coagulation factor II = assay: Plasma coagulation factor II in rats; conditions: 12h after last dose of one week gavage
coagulation factor X = assay: Plasma coagulation factor X in rats; conditions: 12h after last dose of one week gavage

**Q.** With CC(=O)CC(c1ccccc1)c1c(O)c2ccccc2oc1=O (stereo not shown) [Warfarin] as the compound, how does the APTT (Coagulation function) read?
**A.** significantly increased

**Q.** And the INR (Coagulation function)?
**A.** significantly increased

**Q.** And the “plasma coagulation factor II” value (coagulation factor II)?
**A.** reduce

**Q.** And the “plasma coagulation factor X” value (coagulation factor X)?
**A.** reduce
